Results on five compounds are retold here after ChEMBL document CHEMBL1909046, “DrugMatrix in vitro pharmacology data”.

SMILES strings stand for the structures.

Series [1] is described as follows: DRUGMATRIX: Sodium/nucleoside co-transporter radioligand binding (ligand: nitrobenzylthioinosine). The series is classed as cell membranes, Cavia porcellus, Dunkin-Hartley, Cerebral cortex, Membrane. The note with it: Not Active = under 50% inhibition at 10 µM.
For series [2], the target named is T1, Type-2 angiotensin II receptor (Homo sapiens, UniProt P50052). Note: in other assays of this panel Not Active means under 50% inhibition at 10 µM.
T1 sequence (P50052 whole entry): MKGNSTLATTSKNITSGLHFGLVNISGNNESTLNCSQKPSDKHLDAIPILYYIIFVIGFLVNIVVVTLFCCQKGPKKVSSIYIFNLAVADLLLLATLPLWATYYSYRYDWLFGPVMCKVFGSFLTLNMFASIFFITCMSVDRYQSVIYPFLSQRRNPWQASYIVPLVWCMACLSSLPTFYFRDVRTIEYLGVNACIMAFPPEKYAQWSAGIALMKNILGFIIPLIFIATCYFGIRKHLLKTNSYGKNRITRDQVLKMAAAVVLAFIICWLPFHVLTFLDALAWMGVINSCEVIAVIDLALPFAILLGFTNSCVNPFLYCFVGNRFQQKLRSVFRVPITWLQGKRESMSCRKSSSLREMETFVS
The series is classed as cell-based. The note with it: cho-k1.

Series [3] in a line: DRUGMATRIX: ATPase, Na+/K+ enzyme inhibition (substrate: ATP). The note with it: Not Active = under 50% inhibition at 10 µM. It is filed as tissue-based, Sus scrofa, Heart.
Series [4] has as its target T2, Substance-K receptor (Homo sapiens, UniProt P21452). Note: in other assays of this panel Not Active means under 50% inhibition at 10 µM.
T2 sequence (P21452 whole entry): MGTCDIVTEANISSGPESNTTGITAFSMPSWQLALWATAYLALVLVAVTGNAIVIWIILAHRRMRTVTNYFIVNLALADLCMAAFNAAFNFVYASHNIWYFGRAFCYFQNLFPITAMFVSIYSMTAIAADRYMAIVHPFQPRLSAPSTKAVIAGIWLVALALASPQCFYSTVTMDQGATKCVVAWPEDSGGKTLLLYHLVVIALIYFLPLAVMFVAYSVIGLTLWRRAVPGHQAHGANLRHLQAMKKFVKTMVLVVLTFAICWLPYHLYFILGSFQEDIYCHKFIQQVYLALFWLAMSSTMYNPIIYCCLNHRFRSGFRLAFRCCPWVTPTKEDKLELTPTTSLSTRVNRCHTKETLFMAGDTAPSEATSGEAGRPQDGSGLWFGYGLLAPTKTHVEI
The series is classed as cell membranes, CHO, Membrane. As to conditions: cho.

Series [5] deals with Vascular endothelial growth factor receptor 1 (Homo sapiens, UniProt P17948). The series is classed as cell-based. As to conditions: huvec.
Chain of Vascular endothelial growth factor receptor 1 (P17948 whole entry): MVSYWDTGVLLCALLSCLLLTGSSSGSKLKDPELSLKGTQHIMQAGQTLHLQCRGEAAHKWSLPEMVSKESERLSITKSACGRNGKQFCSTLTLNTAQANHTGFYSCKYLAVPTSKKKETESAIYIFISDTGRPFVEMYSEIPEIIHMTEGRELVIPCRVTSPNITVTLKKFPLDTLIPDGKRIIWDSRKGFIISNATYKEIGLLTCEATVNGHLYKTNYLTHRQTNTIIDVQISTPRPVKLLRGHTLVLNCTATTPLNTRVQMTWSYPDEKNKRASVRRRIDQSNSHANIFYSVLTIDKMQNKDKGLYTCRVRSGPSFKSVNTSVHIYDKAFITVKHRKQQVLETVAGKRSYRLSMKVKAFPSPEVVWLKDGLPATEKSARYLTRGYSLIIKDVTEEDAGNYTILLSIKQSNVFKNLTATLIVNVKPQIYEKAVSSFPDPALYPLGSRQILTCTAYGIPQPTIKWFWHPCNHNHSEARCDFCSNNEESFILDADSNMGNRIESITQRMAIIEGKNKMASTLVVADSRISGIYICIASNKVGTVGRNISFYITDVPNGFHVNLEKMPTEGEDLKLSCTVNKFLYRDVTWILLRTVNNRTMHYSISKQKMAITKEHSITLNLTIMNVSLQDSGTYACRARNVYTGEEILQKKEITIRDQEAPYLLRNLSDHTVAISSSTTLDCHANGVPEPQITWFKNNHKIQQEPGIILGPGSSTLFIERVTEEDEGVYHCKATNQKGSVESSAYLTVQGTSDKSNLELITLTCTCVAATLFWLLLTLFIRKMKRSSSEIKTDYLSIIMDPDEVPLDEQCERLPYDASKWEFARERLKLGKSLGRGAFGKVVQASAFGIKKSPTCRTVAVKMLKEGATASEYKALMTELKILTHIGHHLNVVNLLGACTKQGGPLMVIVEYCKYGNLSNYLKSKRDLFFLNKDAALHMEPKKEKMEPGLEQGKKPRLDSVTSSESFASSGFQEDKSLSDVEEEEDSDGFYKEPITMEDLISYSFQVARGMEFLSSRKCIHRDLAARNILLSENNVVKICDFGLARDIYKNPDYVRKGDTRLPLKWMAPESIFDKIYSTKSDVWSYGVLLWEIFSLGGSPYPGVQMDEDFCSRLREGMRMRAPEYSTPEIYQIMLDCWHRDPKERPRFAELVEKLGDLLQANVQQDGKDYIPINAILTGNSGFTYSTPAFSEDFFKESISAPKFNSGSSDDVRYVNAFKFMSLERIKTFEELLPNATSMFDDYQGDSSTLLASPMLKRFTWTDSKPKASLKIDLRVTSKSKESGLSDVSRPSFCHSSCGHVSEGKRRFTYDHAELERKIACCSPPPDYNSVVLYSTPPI
For series [6], the target named is Vasopressin V1a receptor (Homo sapiens, UniProt P37288). It is filed as cell membranes, Membrane. As to conditions: hek293. Note: in other assays of this panel Not Active means under 50% inhibition at 10 µM.
Chain of Vasopressin V1a receptor (P37288 whole entry): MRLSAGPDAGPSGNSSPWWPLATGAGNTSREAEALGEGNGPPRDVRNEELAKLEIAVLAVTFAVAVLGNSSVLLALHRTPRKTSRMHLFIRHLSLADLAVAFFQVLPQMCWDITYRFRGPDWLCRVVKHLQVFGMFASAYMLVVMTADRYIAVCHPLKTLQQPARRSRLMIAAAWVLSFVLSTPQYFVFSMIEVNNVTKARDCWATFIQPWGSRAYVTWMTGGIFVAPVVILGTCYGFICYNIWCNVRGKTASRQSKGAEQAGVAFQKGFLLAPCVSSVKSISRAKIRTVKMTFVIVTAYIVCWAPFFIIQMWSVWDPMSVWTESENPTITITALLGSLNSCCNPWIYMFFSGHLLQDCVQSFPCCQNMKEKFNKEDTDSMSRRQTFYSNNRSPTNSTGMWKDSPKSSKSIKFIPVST
For series [7], the target named is Cannabinoid receptor 1 (Homo sapiens, UniProt P21554). It is filed as cell membranes, Membrane. The note with it: chem-1. Note: in other assays of this panel Not Active means under 50% inhibition at 10 µM.
Series [8] concerns the target C-C chemokine receptor type 5 (Homo sapiens, UniProt P51681). It is filed as cell membranes, Membrane. As to conditions: hek293. Note: in other assays of this panel Not Active means under 50% inhibition at 10 µM.
In series [9] the target is T3, D(4) dopamine receptor (Homo sapiens, UniProt P21917).
T3 sequence (P21917 whole entry): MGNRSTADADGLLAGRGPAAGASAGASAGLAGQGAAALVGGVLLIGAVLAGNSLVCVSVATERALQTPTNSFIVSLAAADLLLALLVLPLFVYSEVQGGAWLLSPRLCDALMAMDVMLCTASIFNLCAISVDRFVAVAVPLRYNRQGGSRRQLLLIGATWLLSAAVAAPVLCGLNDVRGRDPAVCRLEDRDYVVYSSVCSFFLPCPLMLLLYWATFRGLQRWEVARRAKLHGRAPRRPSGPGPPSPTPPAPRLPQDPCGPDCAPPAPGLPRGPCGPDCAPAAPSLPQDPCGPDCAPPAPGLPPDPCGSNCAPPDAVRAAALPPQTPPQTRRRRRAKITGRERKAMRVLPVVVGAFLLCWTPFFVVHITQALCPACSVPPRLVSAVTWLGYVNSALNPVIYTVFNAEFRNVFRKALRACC
Kind of series: DRUGMATRIX: Dopamine D4.2 radioligand binding (ligand: [3H] Spiperone). The series is classed as cell membranes, CHO-K1, Membrane. The note with it: cho-k1; Not Active = under 50% inhibition at 10 µM.

Series [10] in a line: DRUGMATRIX: GABAA, Muscimol, Central radioligand binding (ligand: [3H] Muscimol). The note with it: Not Active = under 50% inhibition at 10 µM. The series is classed as cell membranes, Rattus norvegicus, Wistar, Brain, Membrane.
The target of series [11] is Histamine H2 receptor (Homo sapiens, UniProt P25021). It is filed as cell membranes, CHO-K1, Membrane. The note with it: cho-k1. Note: in other assays of this panel Not Active means under 50% inhibition at 10 µM.
Series [12] is described as follows: DRUGMATRIX: Imidazoline I2, Central radioligand binding (ligand: [3H] Idazoxan). The series is classed as cell membranes, Rattus norvegicus, Wistar, Cerebral cortex, Membrane. The note with it: Not Active = under 50% inhibition at 10 µM.
Series [13] addresses T4, Cysteinyl leukotriene receptor 1 (Homo sapiens, UniProt Q9Y271).
T4 sequence (Q9Y271 whole entry): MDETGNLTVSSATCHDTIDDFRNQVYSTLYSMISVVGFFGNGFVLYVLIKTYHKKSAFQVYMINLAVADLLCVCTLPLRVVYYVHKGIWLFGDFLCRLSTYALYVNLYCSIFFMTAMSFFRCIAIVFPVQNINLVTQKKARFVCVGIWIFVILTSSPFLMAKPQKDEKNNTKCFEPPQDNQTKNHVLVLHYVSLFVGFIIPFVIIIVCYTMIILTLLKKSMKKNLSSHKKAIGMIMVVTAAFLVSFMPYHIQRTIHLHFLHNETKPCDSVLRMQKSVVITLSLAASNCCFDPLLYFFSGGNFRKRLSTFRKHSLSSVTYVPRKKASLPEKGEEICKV
The series is classed as cell membranes, CHO-K1, Membrane. As to conditions: cho-k1.

Series [14] has as its target Nitric oxide synthase 1 (Rattus norvegicus, UniProt P29476). It is filed as tissue-based, Cerebellum. Note: in other assays of this panel Not Active means under 50% inhibition at 10 µM.
The target in series [15] is Platelet-activating factor receptor (Homo sapiens, UniProt P25105). Kind of series: biochemical. The series is classed as tissue-based. The note with it: platelet. Note: in other assays of this panel Not Active means under 50% inhibition at 10 µM.
Chain of Platelet-activating factor receptor (P25105 whole entry): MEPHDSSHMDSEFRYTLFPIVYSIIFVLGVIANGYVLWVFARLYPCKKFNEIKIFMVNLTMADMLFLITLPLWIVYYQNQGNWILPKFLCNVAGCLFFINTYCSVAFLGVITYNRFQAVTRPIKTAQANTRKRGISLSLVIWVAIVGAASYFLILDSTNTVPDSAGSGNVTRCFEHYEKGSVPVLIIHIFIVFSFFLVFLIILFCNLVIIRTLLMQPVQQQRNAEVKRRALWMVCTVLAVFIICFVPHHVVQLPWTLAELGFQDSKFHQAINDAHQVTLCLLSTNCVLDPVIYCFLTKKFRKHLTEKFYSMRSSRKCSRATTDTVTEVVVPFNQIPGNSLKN
The target of series [16] is Mitogen-activated protein kinase 3 (Homo sapiens, UniProt P27361). Kind of series: DRUGMATRIX: Protein Serine/Threonine Kinase, ERK1 enzyme inhibition (substrate: Myelin Basic Protein). As to conditions: Not Active = under 50% inhibition at 10 µM. The arrangement: species or system Escherichia coli.
Chain of Mitogen-activated protein kinase 3 (P27361 whole entry): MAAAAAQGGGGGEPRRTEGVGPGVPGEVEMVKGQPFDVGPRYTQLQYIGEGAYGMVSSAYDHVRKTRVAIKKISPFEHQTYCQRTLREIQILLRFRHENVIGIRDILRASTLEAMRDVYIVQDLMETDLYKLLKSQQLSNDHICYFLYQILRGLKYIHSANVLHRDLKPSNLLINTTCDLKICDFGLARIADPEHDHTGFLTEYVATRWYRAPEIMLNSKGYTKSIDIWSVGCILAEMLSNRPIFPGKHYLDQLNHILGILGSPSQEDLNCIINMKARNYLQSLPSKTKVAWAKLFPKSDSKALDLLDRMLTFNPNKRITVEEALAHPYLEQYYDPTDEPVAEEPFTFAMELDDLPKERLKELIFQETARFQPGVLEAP
Series [17] addresses T5, Adenosine receptor A3 (Homo sapiens, UniProt P0DMS8).
T5 sequence (P0DMS8 whole entry): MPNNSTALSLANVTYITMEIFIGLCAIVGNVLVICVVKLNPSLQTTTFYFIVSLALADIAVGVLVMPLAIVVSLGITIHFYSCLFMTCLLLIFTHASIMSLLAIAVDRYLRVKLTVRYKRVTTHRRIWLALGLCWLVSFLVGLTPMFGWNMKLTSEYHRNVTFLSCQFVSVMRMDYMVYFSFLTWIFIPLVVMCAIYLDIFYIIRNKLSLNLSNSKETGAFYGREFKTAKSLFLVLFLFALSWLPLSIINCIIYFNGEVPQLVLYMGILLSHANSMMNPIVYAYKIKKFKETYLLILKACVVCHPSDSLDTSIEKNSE
It is filed as cell membranes, CHO-K1, Membrane. As to conditions: for Ki: read-out: Ki.

The target of series [18] is Cytochrome P450 2E1 (Homo sapiens, UniProt P05181). As to conditions: bti-tn-5b1-4. Note: in other assays of this panel Not Active means under 50% inhibition at 10 µM.
Chain of Cytochrome P450 2E1 (P05181 whole entry): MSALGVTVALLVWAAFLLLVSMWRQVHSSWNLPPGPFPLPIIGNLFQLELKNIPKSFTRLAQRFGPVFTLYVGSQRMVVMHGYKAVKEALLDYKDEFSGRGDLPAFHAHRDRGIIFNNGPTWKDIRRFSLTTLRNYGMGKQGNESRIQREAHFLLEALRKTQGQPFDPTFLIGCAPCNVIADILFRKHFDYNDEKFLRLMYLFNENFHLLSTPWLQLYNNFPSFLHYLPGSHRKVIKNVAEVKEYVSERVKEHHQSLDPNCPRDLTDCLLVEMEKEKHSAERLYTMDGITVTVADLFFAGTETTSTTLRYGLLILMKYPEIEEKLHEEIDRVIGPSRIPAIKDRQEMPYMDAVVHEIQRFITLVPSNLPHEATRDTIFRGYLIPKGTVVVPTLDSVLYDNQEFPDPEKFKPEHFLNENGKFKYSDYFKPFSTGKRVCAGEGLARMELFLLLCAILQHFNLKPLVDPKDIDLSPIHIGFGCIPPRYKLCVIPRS

Chain of C-C chemokine receptor type 5 (P51681 whole entry): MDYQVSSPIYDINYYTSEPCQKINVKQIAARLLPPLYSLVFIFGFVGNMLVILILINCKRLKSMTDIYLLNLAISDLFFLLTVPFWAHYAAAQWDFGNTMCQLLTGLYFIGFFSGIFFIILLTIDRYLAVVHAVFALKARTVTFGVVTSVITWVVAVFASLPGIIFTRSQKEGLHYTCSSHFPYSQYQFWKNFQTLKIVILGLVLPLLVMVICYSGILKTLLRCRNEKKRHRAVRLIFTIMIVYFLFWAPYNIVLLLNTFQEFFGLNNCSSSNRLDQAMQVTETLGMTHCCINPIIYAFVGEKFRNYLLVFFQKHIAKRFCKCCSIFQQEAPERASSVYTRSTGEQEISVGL
Chain of Nitric oxide synthase 1 (P29476 whole entry): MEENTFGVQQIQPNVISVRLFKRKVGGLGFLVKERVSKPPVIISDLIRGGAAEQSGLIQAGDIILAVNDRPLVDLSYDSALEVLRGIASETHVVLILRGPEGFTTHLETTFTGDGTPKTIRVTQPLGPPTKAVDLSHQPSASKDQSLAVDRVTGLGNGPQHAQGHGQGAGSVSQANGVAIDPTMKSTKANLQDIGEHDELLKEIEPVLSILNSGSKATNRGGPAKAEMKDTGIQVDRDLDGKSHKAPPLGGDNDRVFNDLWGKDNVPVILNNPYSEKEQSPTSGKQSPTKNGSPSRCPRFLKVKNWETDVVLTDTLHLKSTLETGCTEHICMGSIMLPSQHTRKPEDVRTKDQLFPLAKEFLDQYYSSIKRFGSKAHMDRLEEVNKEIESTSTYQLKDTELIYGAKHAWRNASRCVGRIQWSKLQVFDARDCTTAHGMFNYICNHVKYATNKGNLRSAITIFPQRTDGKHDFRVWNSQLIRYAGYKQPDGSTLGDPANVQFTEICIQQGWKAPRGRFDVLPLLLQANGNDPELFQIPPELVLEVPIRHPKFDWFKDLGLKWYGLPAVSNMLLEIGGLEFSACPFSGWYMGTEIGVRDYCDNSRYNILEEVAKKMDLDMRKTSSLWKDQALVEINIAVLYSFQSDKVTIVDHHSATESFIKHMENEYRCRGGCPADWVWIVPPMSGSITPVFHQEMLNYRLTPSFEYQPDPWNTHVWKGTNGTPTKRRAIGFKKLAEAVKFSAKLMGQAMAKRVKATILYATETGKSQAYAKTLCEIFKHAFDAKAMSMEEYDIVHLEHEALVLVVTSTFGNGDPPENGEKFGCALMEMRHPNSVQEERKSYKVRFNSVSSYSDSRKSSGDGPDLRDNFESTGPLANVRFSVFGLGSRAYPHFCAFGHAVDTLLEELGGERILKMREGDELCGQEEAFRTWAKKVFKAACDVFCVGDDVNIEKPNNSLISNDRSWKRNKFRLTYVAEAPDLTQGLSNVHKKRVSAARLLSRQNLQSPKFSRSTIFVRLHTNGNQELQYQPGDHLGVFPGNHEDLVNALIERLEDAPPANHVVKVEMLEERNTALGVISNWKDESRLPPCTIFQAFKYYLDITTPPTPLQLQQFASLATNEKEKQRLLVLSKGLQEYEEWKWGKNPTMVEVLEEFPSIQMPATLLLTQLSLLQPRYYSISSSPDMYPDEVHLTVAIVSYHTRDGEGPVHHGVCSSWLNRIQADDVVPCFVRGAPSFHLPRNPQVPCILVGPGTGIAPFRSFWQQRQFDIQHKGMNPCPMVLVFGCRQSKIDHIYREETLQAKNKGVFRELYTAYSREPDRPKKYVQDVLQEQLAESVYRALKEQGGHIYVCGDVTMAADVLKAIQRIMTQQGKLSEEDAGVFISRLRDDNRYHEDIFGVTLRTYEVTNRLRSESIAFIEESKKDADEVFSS

The IC50 is the concentration at which inhibition is half-maximal. The Ki is a measure of affinity in units of concentration, obtained from inhibition or displacement. As for `CC(C)(C)NCC(O)c1ccc(O)c(CO)c1` (configuration not stated) [ALBUTEROL], the IC50 result in series [1], in [2], in series [3], in series [4], in series [5] and in series [6] was “Not Active” throughout. Also, the IC50 result in series [7], in series [8], in series [9], in series [10], in [11] and in series [12] was “Not Active” throughout. Besides, the IC50 result in [13], in series [14], in series [15], in series [16], in series [17] (cho-k1) and in [18] was “Not Active” in each case. The Ki entry in [1], in [3], in series [10], in [12] and in [18] was “Not Active” in each case.
Turning to `Oc1c(I)cc(I)c2cccnc12` [IODOQUINOL], the IC50 entry in series [1], in [2], in [3], in series [4], in [5] and in series [6] was “Not Active” in each case. Besides, the IC50 entry in [7], in series [8], in [9], in series [10], in series [11] and in series [12] was “Not Active” each time. In addition, the IC50 result in [13] is “Not Active”; in [14], “Not Active”; in series [15], “Not Active”; in [16] (read-out: IC50), 5260 nM; in series [17] (read-out: IC50), 933 nM; in series [18], “Not Active”. In addition, the Ki entry in [1] was “Not Active”; in series [3], “Not Active”; in series [10], “Not Active”; in [12], “Not Active”; in series [17] it was 527 nM; in series [18], “Not Active”.
In the case of `NNC(=O)c1ccncc1` [ISONIAZID], the IC50 entry in series [1], in series [2], in series [3], in series [4], in series [5] and in [6] was “Not Active” throughout. Besides, the IC50 result in [7], in series [8], in series [9], in series [10], in [11] and in series [12] was “Not Active” each time. The IC50 result in [13], in series [14], in series [15], in series [16], in series [17] (cho-k1) and in series [18] was “Not Active” in each case. In addition, the Ki result in series [1], in series [3], in series [10], in series [12] and in [18] was “Not Active” in each case.
In the case of `CC1=C(/C=C/C(C)=C/C=C/C(C)=C\C(=O)O)C(C)(C)CCC1` [ISOTRETINOIN], the IC50 result in series [1], in [2], in [3], in series [4], in series [5] and in [6] was “Not Active” in each case. Also, the IC50 entry in series [7], in [8], in series [9], in series [10], in series [11] and in series [12] was “Not Active” throughout. In addition, the IC50 result in series [13] was “Not Active”; in series [14], “Not Active”; in series [15] it was “Not Active”; in [16], “Not Active”; in series [17] (read-out: IC50) it was 4170 nM; in [18], “Not Active”. Besides, the Ki entry in series [1] was “Not Active”; in series [3] it was “Not Active”; in series [10] it was “Not Active”; in [12] it was “Not Active”; in series [17] it was 2360 nM; in series [18], “Not Active”.
Regarding `CO[C@@H]1[C@@H](O[C@@H]2O[C@H](C)[C@@H](O[C@H]3C[C@@](C)(O)[C@@H](OC(=O)CC(C)C)[C@H](C)O3)[C@H](N(C)C)[C@H]2O)[C@@H](CC=O)C[C@@H](C)[C@@H](O)/C=C/C=C/C[C@@H](C)OC(=O)C[C@H]1O` [KITASAMYCIN], the IC50 result in series [1], in series [2], in series [3], in series [4], in series [5] and in [6] was “Not Active” in each case. In addition, the IC50 result in series [7], in series [8], in [9], in [10], in series [11] and in series [12] was “Not Active” throughout. Besides, the half-maximal inhibitory concentration (IC50) entry in [13], in series [14], in series [15], in series [16], in [17] (cho-k1) and in series [18] was “Not Active” in each case. Moreover, the inhibitory constant (Ki) entry in series [1], in [3], in [10], in series [12] and in series [18] was “Not Active” in each case.
